Measurements reported in US8202889B2, “Inhibitors of bacterial IMPDH” (Vertex Pharmaceuticals Incorporated, priority 2005, dated 2012).

How the values were obtained:
[1] = biological target: E. coli IMPDH enzyme (Escherichia coli, UniProt P0ADG7); assay: IMPDH Activity Inhibition Assay; assay type: biochemical; details: for activity at 25 µM: percent remaining activity of E. coli IMPDH enzyme at 25 μM inhibitor (I) and 14 nM enzyme (E); for activity at 10 µM: percent remaining activity of E. coli IMPDH enzyme at 10 μM inhibitor (I) and 55 nM enzyme (E)
Description: IMP dehydrogenase activity was assayed according to the method reported by Hedstrom. [Hedstrom, L. et al., Biochemistry, 39, pp. 9804-9810 (2000), the disclosure of which is herein incorporated by reference]. Table 1 below lists the percent remaining activity of E. coli IMPDH enzyme (E) at either 25 μM inhibitor (I) and 14 nM enzyme (E) or 10 μM inhibitor (I) and 55 nM enzyme (E). “ND” means no data.

[2] = test system: bacterial IMPDH; details: Hedstrom et al., Curr. Med. Chem. 1999; cited from earlier work

Sequence of E. coli IMPDH enzyme (P0ADG7 whole entry): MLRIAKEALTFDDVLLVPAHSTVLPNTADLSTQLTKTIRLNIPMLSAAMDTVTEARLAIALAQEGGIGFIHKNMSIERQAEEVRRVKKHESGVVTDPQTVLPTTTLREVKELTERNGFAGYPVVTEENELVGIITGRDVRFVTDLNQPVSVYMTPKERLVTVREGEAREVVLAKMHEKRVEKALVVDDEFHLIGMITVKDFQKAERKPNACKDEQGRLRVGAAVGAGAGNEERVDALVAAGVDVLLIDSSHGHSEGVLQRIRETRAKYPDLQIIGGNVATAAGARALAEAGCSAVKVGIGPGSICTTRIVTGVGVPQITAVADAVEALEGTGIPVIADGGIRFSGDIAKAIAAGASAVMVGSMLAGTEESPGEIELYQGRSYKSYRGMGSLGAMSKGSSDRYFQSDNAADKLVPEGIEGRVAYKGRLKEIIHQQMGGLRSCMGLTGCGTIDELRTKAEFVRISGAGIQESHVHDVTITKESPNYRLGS

O=C(Nc1nc2ccccc2[nH]1)c1ccc2cc(C(=O)Nc3nc4ccccc4[nH]3)ccc2c1 [Compound 6]
activity at 25 µM [1]: 90%

CCOc1cccc2sc(NC(=O)c3cc4ccccc4cc3OC)nc12 [Compound 7]
activity at 25 µM [1]: 76%

Cc1cccc(NC(=O)c2ccc3cc(C(=O)Nc4cccc(C)n4)ccc3c2)n1 [Compound 8]
activity at 10 µM [1]: 87%

COc1cc2ccccc2cc1C(=O)Nc1nc(-c2c(OC)ccc3ccccc23)cs1 [Compound 9]
activity at 10 µM [1]: 100%

COc1ccc(-c2csc(NC(=O)c3cc4ccccc4cc3OC)n2)cc1OC [Compound 10]
activity at 10 µM [1]: 73%

O=C(Nc1nccs1)c1ccc2cc(C(=O)Nc3nccs3)ccc2c1 [Compound 11]
activity at 10 µM [1]: 97%

O=C(Nc1nncs1)c1ccc2cc(C(=O)Nc3nncs3)ccc2c1 [Compound 12]
activity at 10 µM [1]: 100%

COc1c(C)c2c(c(O)c1C/C=C(\C)CCC(=O)O)C(=O)OC2 [mycophenolic acid]
fold less potent against bacterial IMPDH versus mammalian IMPDH [2]: > 1000 fold
